Measurements: PMC8546428, “Convergent olfactory trace amine-associated receptors detect biogenic polyamines with distinct motifs via a conserved binding site” (The Journal of Biological Chemistry, 2021)
Numbering of substitutions follows the chain as printed.

Columns and labels:
WT sTAAR365 = biological target: T1, WT sTAAR365 (Petromyzon marinus, UniProt A0A678XMK4); assay: cAMP TR-FRET assay, wild-type sTAAR365 in HEK293T; format: cell-based, sea lamprey; settings: for activation of sTAAR365 (cAMP accumulation): ligand 1 mM, HEK293T, Fig. 2A
T1 sequence (A0A678XMK4 1-365): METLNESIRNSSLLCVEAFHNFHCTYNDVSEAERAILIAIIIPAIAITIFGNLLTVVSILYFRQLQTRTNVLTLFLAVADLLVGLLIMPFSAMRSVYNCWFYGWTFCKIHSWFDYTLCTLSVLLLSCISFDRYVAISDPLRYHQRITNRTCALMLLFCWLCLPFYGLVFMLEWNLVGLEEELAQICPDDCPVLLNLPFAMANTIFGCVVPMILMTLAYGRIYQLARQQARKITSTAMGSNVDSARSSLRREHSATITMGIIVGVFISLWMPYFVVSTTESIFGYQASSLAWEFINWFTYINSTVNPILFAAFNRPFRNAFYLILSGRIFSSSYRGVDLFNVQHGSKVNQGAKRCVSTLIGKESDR
Experimental: HEK293T cells were transfected with sea lamprey sTAAR365 for 24 h and assayed for Golf-mediated cAMP production with a TR-FRET assay at 30 min after ligand addition. Receptor activity was normalized to the cAMP level in buffer-treated cells (mean ± S.D., n = 3). A, HEK293T cells expressing sTAAR365 or mock plasmid were incubated with either vehicle or tested ligands (1 mM). […] B, concentration-dependent cAMP production of HEK293T cells expressing sTAAR365 stimulated with cadaverine, putrescine, and spermine.

sTAAR365 D3.32E [1] = biological target: T2, sTAAR365 D3.32E (Petromyzon marinus, UniProt A0A678XMK4, D114E)
T2 sequence (A0A678XMK4 1-365 D114E): T1 sequence (A0A678XMK4 1-365) with D114E

sTAAR365 D3.32E [2] = biological target: T2, sTAAR365 D3.32E; assay: cell-based
sTAAR365 Y6.51L = biological target: T3, sTAAR365 Y6.51L (Petromyzon marinus, UniProt A0A678XMK4, Y272L); assay: cell-based
T3 sequence (A0A678XMK4 1-365 Y272L): T1 sequence (A0A678XMK4 1-365) with Y272L

sTAAR365 T7.42A = biological target: T4, sTAAR365 T7.42A (Petromyzon marinus, UniProt A0A678XMK4, T298A); assay: cell-based
T4 sequence (A0A678XMK4 1-365 T298A): T1 sequence (A0A678XMK4 1-365) with T298A

sTAAR365 T7.42S = sTAAR365 T7.42S (Petromyzon marinus, UniProt A0A678XMK4, T298S); assay: cell-based
Sequence of sTAAR365 T7.42S (A0A678XMK4 whole entry T298S): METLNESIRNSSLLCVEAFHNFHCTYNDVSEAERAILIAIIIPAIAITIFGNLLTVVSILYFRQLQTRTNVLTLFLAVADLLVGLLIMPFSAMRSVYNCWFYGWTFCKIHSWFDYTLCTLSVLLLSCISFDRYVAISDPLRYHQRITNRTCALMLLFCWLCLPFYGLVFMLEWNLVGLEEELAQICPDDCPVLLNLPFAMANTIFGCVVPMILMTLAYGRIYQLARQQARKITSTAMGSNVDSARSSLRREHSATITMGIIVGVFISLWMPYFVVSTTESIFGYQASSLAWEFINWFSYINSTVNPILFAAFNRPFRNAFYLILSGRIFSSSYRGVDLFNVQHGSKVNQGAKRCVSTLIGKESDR

sTAAR365 T7.42V = biological target: T5, sTAAR365 T7.42V (Petromyzon marinus, UniProt A0A678XMK4, T298V); assay: cell-based
T5 sequence (A0A678XMK4 1-365 T298V): T1 sequence (A0A678XMK4 1-365) with T298V

sTAAR365 E7.36Q = sTAAR365 E7.36Q (Petromyzon marinus, UniProt A0A678XMK4, E292Q); assay: cell-based
Sequence of sTAAR365 E7.36Q (A0A678XMK4 whole entry E292Q): as the sequence (A0A678XMK4 whole entry T298S) above, with E292Q, S298T counted along it

sTAAR365 Y7.43F = sTAAR365 Y7.43F (Petromyzon marinus, UniProt A0A678XMK4, Y299F); assay: cell-based
Sequence of sTAAR365 Y7.43F (A0A678XMK4 whole entry Y299F): as the sequence (A0A678XMK4 whole entry T298S) above, with S298T, Y299F counted along it

sTAAR365 Y7.43L = sTAAR365 Y7.43L (Petromyzon marinus, UniProt A0A678XMK4, Y299L); assay: cell-based
Sequence of sTAAR365 Y7.43L (A0A678XMK4 whole entry Y299L): as the sequence (A0A678XMK4 whole entry T298S) above, with S298T, Y299L counted along it

sTAAR365 W7.40F = sTAAR365 W7.40F (Petromyzon marinus, UniProt A0A678XMK4, W296F); assay: cell-based
Sequence of sTAAR365 W7.40F (A0A678XMK4 whole entry W296F): as the sequence (A0A678XMK4 whole entry T298S) above, with W296F, S298T counted along it

SMILES	EC50 (WT sTAAR365)	difference in potency, cadaverine vs putrescine (WT sTAAR365; WT sTAAR365)	response threshold (WT sTAAR365; WT sTAAR365, cAMP production)	activation of sTAAR365 (cAMP accumulation) (WT sTAAR365)	Hill slope of concentration-response curve (sTAAR365 D3.32E [1])	increase of EC50 vs wild-type sTAAR365 (sTAAR365 D3.32E [1])	EC50 (sTAAR365 D3.32E [2])	EC50 (sTAAR365 Y6.51L)	EC50 (sTAAR365 T7.42A)	EC50 (sTAAR365 T7.42S)	EC50 (sTAAR365 T7.42V)	EC50 (sTAAR365 E7.36Q)	EC50 (sTAAR365 Y7.43F)	EC50 (sTAAR365 Y7.43L)	EC50 (sTAAR365 W7.40F)	maximal response (Emax) relative to cadaverine/putrescine (WT sTAAR365; WT sTAAR365, cAMP production)
NCCCCCN [cadaverine]	0.004 µM	1000 fold	~100 pM	activated	1.44	three	14 ± 0.5 µM	> 100 µM	31 ± 24 µM	0.126 ± 0.013 µM	9 ± 2 µM	0.06 ± 0.011 µM	2 ± 0.2 µM	1 ± 0.2 µM	0.223 ± 0.037 µM	–
NCCCNCCCCNCCCN [spermine]	28 µM	–	–	activated	–	–	–	> 500 µM	–	64 ± 7 µM	–	> 500 µM	–	–	–	one-third
NCCCCN [putrescine]	56 µM	–	–	activated	–	one	> 500 µM	–	> 500 µM	–	> 500 µM	–	> 1000 µM	> 1000 µM	> 500 µM	–
